Key:
[1] = target: T1, HLA-A2 molecules in T2 cells (Homo sapiens, UniProt P04439, D140Y/D185E/D98H/E176V/E277Q/G131W/G231S/I119V/I121R/I166T/I218V/L300P/L318F/N151K/N90K/P208A/P217A/Q86G/Q94H/R138H/R169H/T345S); experiment: HLA-A2 Stabilization Assay (peptide binding, T2 cells, flow cytometry); parameters: key: Strong (S); Median (M); Weak (W); None (N)
T1 construct: HLA-A2 molecules that are synthesized in a transporter associated with antigen processing (TAP)-deficient cell line, T2; host or cells: T2 cells (TAP-deficient human cell line)
Description: The assay for peptide binding to class I major histocompatibility complex (MHC/HLA-A2) molecules is based on the ability of peptides to stabilize MHC class I, HLA-A2 molecules that are synthesized in a transporter associated with antigen processing (TAP)-deficient cell line, T2 (ATCC® Number: CRL-1992). The extent of stabilization of MHC class I molecules is directly related to the binding affinity of the added peptides (Townsend et al., Cell. 1990 Jul. 27; 62(2):285-95; Andersen et al., Tissue Antigens. 1999 August; 54(2):185-90).
For the assay, T2 cells were plated in 96-well V-bottom plates, 100 ul/well RPMI media, at a density of 1×10^6 cells/ml, with final peptide concentrations of 200 uM, 20 uM, 2 uM, 200 nM, 20 nM, 2 nM, and no peptide as negative control. The cells with peptides were incubated for 18 hours at 26° C., 5% CO2. After 18 hours, the plates were transferred to 37° C., 5% CO2 and incubated for an additional 3 hours. The cells in plate were washed once with FACS buffer (PBS, 2.5% FCS, 1% NaN3) and then stained by adding 1 ul/well FITC-labeled mouse anti-human HLA-A2 antibody (BD Pharmingen, Cat. No. 551285), 1 ul/well PI, and then incubating at 4° C. for 30 minutes. After staining, cells were resuspended in 200 ul of FACS buffer and transferred from 96-well plates to racks of 96 microtubes. Samples were run on a FACScan flow cytometer and the data were analysed by using CellQuest software.
A peptide of Hepatitis B Core protein (HBC) was used as a positive control. The Hepatitis B Core peptide is a potent HLA-A2.1 epitope and consists of residue numbers 18-27 of the core sequence, amino acids […] (SEQ ID NO:73) (Zhang et al. Immunology. 2007, 121(1):105-12).

[2] = system: T2 cells loaded with individual peptides; experiment: 51Cr Release Assay for activity of CTL generated with peptide-loaded Drosophila aAPC; assay type: cell-based, human; parameters: key to CTL Activity: Strong (S); Median (M); Weak (W); None (N); conditions: for Ability to induce CTL in normal donors: truncated and computer predicted peptides; for Induction of CTL in two normal donors: Donor 1 and Donor 2, FIG. 3 and FIG. 4; for CTL Activities Median: number of donors that elicited Median activity over total number of donors; for CTL Activities Median / CTL Activities Strong / CTL Activities Weak / CTL Activities None: T2 targets loaded with individual peptide; for CTL Activities Strong: number of donors that elicited Strong activity over total number of donors; for CTL Activities Weak: number of donors that elicited Weak activity over total number of donors; for CTL Activities None: number of donors that elicited no activity over total number of donors
Procedure: Drosophila aAPC were generated from Schneider S2 cells (S2 cells), which were originally established in 1969 from several hundred Oregon-R (wild type) Drosophila melanogaster (Oregon-R) embryos (American Type Culture Collection (ATCC) CRL-1963) according to published procedures (Schneider, J. Embryol. Exp. Morph. 1972 Vol 27, pp. 353-365), and deposited in the ATCC(CRL10974). S2 cells are grown in commercial Schneider's Drosophila medium supplemented with 10% heat-inactivated fetal bovine serum. In order to generate aAPCs, human complementary DNAs (cDNAs) for HLA-A2.1, B7.1, LFA-3, ICAM-1 and CD70, were individually inserted into the pRmHa-3 vector and S2 cells were transfected using the calcium phosphate precipitation method with a mixture of HLA-A2.1, B7.1, LFA-3, ICAM-1 and CD70 plasmid DNAs (for aAPC clone 1120) and the phshneo plasmid. (see U.S. Pat. No. 6,225,042 regarding construction and use of pRMHa plasmid vectors). The human cDNAs were prepared using standard techniques by reverse transcription-PCR using primers derived from the published sequences for HLA-A2.1 from K562 cells, B7.1 from K562 cells, LFA-3 from HL60 cells, ICAM-1 from K562 cells, and CD70 from HLA-A2.1+LCL cells. K562 cells are a human erythroleukemic cell line, HL60 cells are a promyelocytic leukemia human cell line, and HLA-A2.1+LCL cells are an Epstein-Barr virus (EBV)-transformed lymphoblastoid cell line (LCL). Stably transfected cells were selected by culturing in Schneider's medium containing geneticin. Prior to scale up of the cells, expression of the transfected genes is induced by the addition of CuSO4. The level of expression is assessed by flow cytometry using anti-HLA-A2.1, anti-B7.1, anti-LFA-3, anti-ICAM-1 and CD70 antibodies. For efficient in vitro activation of the CD8+ lymphocytes, greater than 30% of the Drosophila cells must express the HLA-A2.1 molecule. The Drosophila cells regularly express each of the molecules at levels between 70-90%. Drosophila aAPC were washed and then incubated at RT for 4 hours with 10 μM of different combinations of mixed peptides or individual peptides (See e.g. U.S. Pat. Nos. 6,225,042, 6,355,479, 6,362,001 and 6,790,662; U.S. Patent Application Publication Nos. 2009/0017000 and 2009/0004142; and International Publication No. WO2007/103009). Purified human CD8+ T cells from HLA-A2 positive donors were then incubated with peptide-loaded Drosophila APC at 37° C., 5% CO2, for 5 days. Human IL-2 (20 U/ml, R&D Systems) and IL-7 (30 U/ml, R&D Systems) were added at day 5 and the activated CD8+ T cells (CTL) were re-stimulated twice, at day 7 and day 15, with non-CD8 adherent cells in a total peripheral blood mononuclear cell (PBMC) preparation from the same donor in the presence of peptides.
A number of different CTL were generated using CD8+ T cells from different donors and different combinations of mixed peptides, including combinations that contained only one peptide. For example, 24 selected peptides were mixed or used individually to create different combinations of peptide mixtures (PM) or individual peptides (P5 and P14) and produce peptide-loaded Drosophila APC. The resulting peptide-loaded Drosophila APC were incubated with CD8+ T cells from 2 different donors (Donor 1 and Donor 2) to produce 11 different batches of CTL (Donor 1: PM1, PM2, PM3, PM4, and P14; Donor 2: PM1, PM2, PM3, PM4, P5, and P14) (Table 3).
CTL (Effector) activity was measured with a standard chromium (^51Cr) release assay, with T2 cells (Target) loaded with individual peptides and also with a number of tumor cell lines as target cells (Brunner et al., Immunology. 1968 February; 14(2):181-96). The highest Effector (E) Target (T) ratio (E/T) was 50:1, with 1:5 serial dilutions of CTL (Effector) used to produce a dose response. Before the assay, Target cells (T2 cells at 3×10^6 cells/100 ul in 1×PBS with 4% FCS) were labeled by adding 100 ul of ^51Cr (Perkin Elmer) and incubating at 37° C. for 1 hour. […]

[3] = T2 targets loaded with computer predicted peptides
[4] = truncated versions of P3, P13, P14
[5] = CTL generated with truncated peptides, T2 targets loaded with individual peptides

Substance | HLA-A2 Binding [1, 4] | Ability to induce CTL in normal donors [2] | CTL Activity [2, 5] | other results
FQMEQIVYC (listed as Homo sapiens) [Peptide P14-19] | – | able to induce CTL | – | HLA-A2 Binding ([1]; computer predicted peptides): M; CTL Activity [2, 3]: M
FVPEVSFEL (listed as Homo sapiens) [Peptide P13-18] | – | able to induce CTL | – | HLA-A2 Binding ([1]; computer predicted peptides): S; CTL Activity [2, 3]: M
KLHDAIVEV (listed as Homo sapiens) [Peptide P13-17] | – | able to induce CTL | – | HLA-A2 Binding ([1]; computer predicted peptides): S; CTL Activity [2, 3]: S
KLHDAIVEVV (listed as Homo sapiens) [Peptide P13-16] | – | – | – | HLA-A2 Binding ([1]; computer predicted peptides): M; CTL Activity [2, 3]: W
LVLNLLE (listed as Homo sapiens) [Peptide P3-8] | N | able to induce CTL | M | –
LVYLGHVIYL (listed as Homo sapiens) [Peptide P3-11] | – | able to induce CTL | – | HLA-A2 Binding ([1]; computer predicted peptides): W; CTL Activity [2, 3]: S
NLLELVHLL (listed as Homo sapiens) [Peptide P3-9] | – | able to induce CTL | – | HLA-A2 Binding ([1]; computer predicted peptides): S
SLVLNLLEL (listed as Homo sapiens) [Peptide P3] | M | – | M | Induction of CTL in two normal donors [2]: induced CTL; CTL Activities Median [2]: 1/12; CTL Activities Strong [2]: 5/12; CTL Activities Weak [2]: 4/12; CTL Activities None [2]: 2/12
TLVDLP (listed as Homo sapiens) [Peptide P13-10] | N | – | S | –
TLVDLPGM (listed as Homo sapiens) [Peptide P13-8] | N | – | M | –
TLVDLPGMT (listed as Homo sapiens) [Peptide P13-7] | N | – | – | –
TLVDLPGMTK (listed as Homo sapiens) [Peptide P13-6] | N | – | – | –
VDLPGMT (listed as Homo sapiens) [Peptide P13-14] | N | – | – | –
VDLPGMTKV (listed as Homo sapiens) [Peptide P13-2] | N | – | – | –
VLNLLEL (listed as Homo sapiens) [Peptide P3-2] | N | – | – | –

The next lines start with results.

HLA-A2 Binding [1, 4] | Substance | Ability to induce CTL in normal donors [2] | CTL Activity [2, 5] | other results
W | IDLPGIT (listed as Homo sapiens) [Peptide P14-16] | – | W | –
W | IDLPGITR (listed as Homo sapiens) [Peptide P14-14] | able to induce CTL | M | –
W | LIDLPGI (listed as Homo sapiens) [Peptide P14-15] | able to induce CTL | S | –
M | LVDLPGM (listed as Homo sapiens) [Peptide P13-13] | able to induce CTL | W | –
M | TLIDLPGITRV (listed as Homo sapiens) [Peptide P14] | – | M | Induction of CTL in two normal donors [2]: induced CTL; CTL Activities Median [2]: 1/17; CTL Activities Strong [2]: 14/17; CTL Activities Weak [2]: 1/17; CTL Activities None [2]: 1/17
M | TLVDLPGMTKV (listed as Homo sapiens) [Peptide P13] | – | M | Induction of CTL in two normal donors [2]: induced CTL; CTL Activities Median [2]: 2/13; CTL Activities Strong [2]: 4/13; CTL Activities Weak [2]: 5/13; CTL Activities None [2]: 2/13
N | VDLPGMTK (listed as Homo sapiens) [Peptide P13-12] | – | – | –
